Data taken from patent publication US20260159500A1, “KINESIN KIF18A INHIBITOR AND USE THEREOF” (SHANGHAI APEIRON THERAPEUTICS COMPANY LIMITED, priority 2022, published 2026).

How the values were obtained:
[1] = tested on: OVCAR3 cells; experiment: Cell proliferation activity test in OVCAR3 cells (CyQUANT Direct); type: cell-based; conditions: Homo sapiens, OVCAR-3, 72 h, 3 days incubation, CyQUANT fluorescence detection, read-out: OVCAR-3_IC50_nM
In short: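 Log-phase cells in RPMI-1640 with 10% FBS were seeded overnight, then exposed to compound at final 0–10 μM (0.2% DMSO) for 3 days at 37 °C, 5% CO2. Proliferation was read by CyQUANT Direct fluorescence after 60 min at 37 °C.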

[2] = biological target: T1, Human KIF18A (amino acid sequence 1-417) (Homo sapiens, UniProt Q8NI77); experiment: Enzymatic activity test (ADP-Glo, microtubule-stimulated KIF18A ATPase); type: biochemical; conditions: 60 μg/mL microtubules, 25 μM ATP, 2.5 nM KIF18A protein, 120 min at ambient temperature, read-out: KIF18A_nM
T1 construct: purchased Viva Biotech (Shanghai) Ltd
T1 sequence (Q8NI77 1-417): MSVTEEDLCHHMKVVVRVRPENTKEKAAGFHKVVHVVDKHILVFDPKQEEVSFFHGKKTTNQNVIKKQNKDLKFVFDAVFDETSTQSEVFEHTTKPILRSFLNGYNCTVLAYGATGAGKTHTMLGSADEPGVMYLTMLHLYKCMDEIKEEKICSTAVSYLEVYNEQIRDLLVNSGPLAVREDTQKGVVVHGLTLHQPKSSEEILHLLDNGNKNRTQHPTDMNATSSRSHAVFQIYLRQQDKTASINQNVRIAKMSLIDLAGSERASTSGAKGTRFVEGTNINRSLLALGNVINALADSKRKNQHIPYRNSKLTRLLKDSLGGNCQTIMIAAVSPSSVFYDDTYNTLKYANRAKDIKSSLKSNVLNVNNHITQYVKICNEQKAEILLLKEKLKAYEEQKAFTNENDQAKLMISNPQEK
In short: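 Microtubule-stimulated ATPase of KIF18A(1-417) run with 60 μg/mL microtubules, 25 μM ATP and 2.5 nM enzyme, compounds at 0-10 μM final, 120 min at ambient temperature. ADP formed was read by ADP-Glo chemiluminescence after two 30-min reagent incubations.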

[3] = tested on: HT29 cells; experiment: CyQuant cell proliferation activity test in HT29 cells; type: cell-based; conditions: Homo sapiens, HT-29, 72 h, 2000 cells per well, 3 days incubation, IC50 by XLFIT, read-out: HT29_IC50_nM
In short: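 Cells seeded at 2000/well in RPMI-1640 with 10% FBS, overnight, then exposed 3 days at 37 °C to compound from 3000 nM top, 3-fold, 9 points, 0.2% DMSO. CyQuant read after 1 h; IC50 from curve fit.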

SMILES	IC50 [1]	IC50 [2]	IC50 [3]
Cc1ccc2cc(NC(=O)c3ccc(NS(=O)(=O)CCO)cc3N3CCC4(CC3)CC4)nc(N3CCC(F)(F)CC3)c2n1 [Example 51, N-(8-(4,4-difluoropiperidin-1-yl)-2-methyl-1,7-naphthyridin-6-yl)-4-(2-hydroxyethylsulfonamido)-2-(6-azaspiro[2.5]octan-6-yl)benzamide]	385 nM	455 nM	387 nM
COc1ccc2cc(NC(=O)c3ccc(NS(=O)(=O)CCO)cc3N3CCC4(CC3)CC4)nc(N3CCC(F)(F)CC3)c2n1 [Example 52, N-(8-(4,4-difluoropiperidin-1-yl)-2-methoxy-1,7-naphthyridin-6-yl)-4-(2-hydroxyethylsulfonamido)-2-(6-azaspiro[2.5]octan-6-yl)benzamide]	83 nM	149 nM	92 nM
Nc1ccc2cc(NC(=O)c3ccc(NS(=O)(=O)CCO)cc3N3CCC4(CC3)CC4)nc(N3CCC(F)(F)CC3)c2n1 [Example 53, N-(2-amino-8-(4,4-difluoropiperidin-1-yl)-1,7-naphthyridin-6-yl)-4-(2-hydroxyethylsulfonamido)-2-(6-azaspiro[2.5]octan-6-yl)benzamide]	4 nM	94 nM	6 nM
O=C(Nc1cc2ccc(O)nc2c(N2CCC(F)(F)CC2)n1)c1ccc(NS(=O)(=O)CCO)cc1N1CCC2(CC1)CC2 [Example 54, 2-{6-azaspiro[2.5]octan-6-yl}-N-[8-(4,4-difluoropiperidin-1-yl)-2-hydroxy-1,7-naphthyridin-6-yl]-4-(2-hydroxyethanesulfonamido)benzamide]	6 nM	27 nM	18 nM
O=C(Nc1cc2ccccc2c(N2CCC(F)(F)CC2)n1)c1ccc(NS(=O)(=O)CCO)cc1N1CCC2(CC1)CC2 [Example 55]	112 nM	250 nM	89 nM
O=C(Nc1cc2ccncc2c(N2CCC(F)(F)CC2)n1)c1ccc(NS(=O)(=O)CCO)cc1N1CCC2(CC1)CC2 [Example 56]	12 nM	34 nM	13 nM
O=C(Nc1cc2cncnc2c(N2CCC(F)(F)CC2)n1)c1ccc(NS(=O)(=O)CCO)cc1N1CCC2(CC1)CC2 [Example 58]	12 nM	32 nM	17 nM
O=C(Nc1cc2nccnc2c(N2CCC(F)(F)CC2)n1)c1ccc(NS(=O)(=O)CCO)cc1N1CCC2(CC1)CC2 [Example 59]	14 nM	38 nM	22 nM
COc1cc2cc(NC(=O)c3ccc(NS(=O)(=O)CCO)cc3N3CCC4(CC3)CC4)nc(N3CCC(F)(F)CC3)c2nn1 [Example 60, N-(8-(4,4-difluoropiperidin-1-yl)-3-methoxypyrido[3,4-c]pyridazin-6-yl)-4-(2-hydroxyethylsulfonamido)-2-(6-azaspiro[2.5]octan-6-yl)benzamide]	18 nM	66 nM	13 nM
O=C(Nc1cc2cc(O)nnc2c(N2CCC(F)(F)CC2)n1)c1ccc(NS(=O)(=O)CCO)cc1N1CCC2(CC1)CC2 [Example 61, 2-{6-Azaspiro[2.5]octan-6-yl}-N-[8-(4,4-difluoropiperidin-1-yl)-3-hydroxypyrido[3,4-c]pyridazin-6-yl]-4-(2-hydroxyethanesulfonamido)benzamide]	74 nM	15 nM	111 nM
Nc1cc2cc(NC(=O)c3ccc(NS(=O)(=O)CCO)cc3N3CCC4(CC3)CC4)nc(N3CCC(F)(F)CC3)c2nn1 [Example 62, N-[3-amino-8-(4,4-difluoropiperidin-1-yl)pyrido[3,4-c]pyridazin-6-yl]-2-{6-azaspiro[2.5]octan-6-yl}-4-(2-hydroxyethanesulfonamido)benzamide]	13 nM	28 nM	12 nM
O=C(Nc1cc(N2CCC(F)(F)CC2)c2ncccc2c1)c1ccc(NS(=O)(=O)CCO)cc1N1CCC2(CC1)CC2 [Example 63]	11 nM	35 nM	15 nM
Cc1ccc2cc(NC(=O)c3ccc(NS(=O)(=O)CCO)cc3N3CCC4(CC3)CC4)cc(N3CCC(F)(F)CC3)c2n1 [Example 64]	76 nM	116 nM	82 nM
COc1ccc2cc(NC(=O)c3ccc(NS(=O)(=O)CCO)cc3N3CCC4(CC3)CC4)cc(N3CCC(F)(F)CC3)c2n1 [Example 65, N-(8-(4,4-difluoropiperidin-1-yl)-2-methoxyquinolin-6-yl)-4-(2-hydroxyethylsulfonamide)-2-(6-azaspiro[2.5]octan-6-yl)benzamide]	420 nM	232 nM	372 nM
O=C(Nc1cc(N2CCC(F)(F)CC2)c2nc(O)ccc2c1)c1ccc(NS(=O)(=O)CCO)cc1N1CCC2(CC1)CC2 [Example 66]	35 nM	23 nM	80 nM
Nc1ccc2cc(NC(=O)c3ccc(NS(=O)(=O)CCO)cc3N3CCC4(CC3)CC4)cc(N3CCC(F)(F)CC3)c2n1 [Example 67]	7 nM	53 nM	13 nM
N#Cc1ccc2cc(NC(=O)c3ccc(NS(=O)(=O)CCO)cc3N3CCC4(CC3)CC4)cc(N3CCC(F)(F)CC3)c2n1 [Example 68, N-(2-cyano-8-(4,4-difluoropiperidin-1-yl)quinolin-6-yl)-4-((2-hydroxyethyl)sulfon amido)-2-(6-azaspiro[2.5]oct-6-yl)benzamide]	119 nM	306 nM	100 nM
O=C(Nc1cc(N2CCC(F)(F)CC2)c2nc(C(F)(F)F)ccc2c1)c1ccc(NS(=O)(=O)CCO)cc1N1CCC2(CC1)CC2 [Example 69, (2-(6-Azaspiro[2.5]octan-6-yl)-4-{[(2-hydroxyethyl)sulfonyl]amino}phenyl)-N-[8-(4,4-difluoropiperidinyl)-2-(trifluoromethyl)(6-quinolinyl)]formamide]	1040 nM	1030 nM	1110 nM
[2H]c1c(NC(=O)c2ccc(NS(=O)(=O)CCO)cc2N2CCC3(CC2)CC3)cc2cccnc2c1N1CCC(F)(F)CC1 [Example 70, N-(8-(4,4-difluoropiperidin-1-yl)quinolin-6-yl-7-d)-4-((2-hydroxyethyl)sulphonamino)-2-(6-azaspiro[2.5]octan-6-yl)benzamide]	9 nM	43 nM	16 nM
O=C(Nc1cc2cccnc2c(N2CCC(F)(F)CC2)c1F)c1ccc(NS(=O)(=O)CCO)cc1N1CCC2(CC1)CC2 [Example 71, N-(8-(4,4-difluoropiperidin-1-yl)-7-fluoroquinolin-6-yl)-4-((2-hydroxyethyl)sulfonamido)-2-(6-azaspiro[2.5]octan-6-yl]benzamide]	18 nM	128 nM	17 nM
O=C(Nc1cc2cccnc2c(N2CCC(F)(F)CC2)c1C(F)(F)F)c1ccc(NS(=O)(=O)CCO)cc1N1CCC2(CC1)CC2 [Example 72, N-(8-(4,4-difluoropiperidin-1-yl)-7-(trifluoromethyl)quinolin-6-yl)-4-((2-hydroxyethyl)sulfonamido)-2-(6-azaspiro[2.5]octan-6-yl)]	> 3000 nM	> 3000 nM	> 3000 nM
O=C(Nc1cc2cccnc2c(N2CCC(F)(F)CC2)c1Cl)c1ccc(NS(=O)(=O)CCO)cc1N1CCC2(CC1)CC2 [Example 73, N-(7-chloro-8-(4,4-difluoropiperidin-1-yl)quinolin-6-yl)-4-((2-hydroxyethyl)sulfonamido)-2-(6-azaspiro[2.5]oct-6-yl)benzamide]	1030 nM	> 3000 nM	1410 nM
N#Cc1c(NC(=O)c2ccc(NS(=O)(=O)CCO)cc2N2CCC3(CC2)CC3)cc2cccnc2c1N1CCC(F)(F)CC1 [Example 74, N-(7-cyano-8-(4,4-difluoropiperidin-1-yl)quinolin-6-yl)-4-((2-hydroxyethyl)sulfon amido)-2-(6-azaspiro[2.5]oct-6-yl)benzamide]	1530 nM	> 3000 nM	1790 nM
Cc1ccc2cc(NC(=O)c3ccc(NS(=O)(=O)CCO)cc3N3CCC4(CC3)CC4)c(F)c(N3CCC(F)(F)CC3)c2n1 [Example 75, N-(8-(4,4-difluoropiperidin-1-yl)-7-fluoro-2-methylquinolin-6-yl)-4-((2-hydroxyethyl)sulfonamido)-2-(6-azaspiro[2.5]octan-6-yl)benzamide]	83 nM	387 nM	44 nM
